Data as given in patent US20180055844A1 (Celgene Corporation, priority 2011, published 2018).
Several values for one entry are separate records, joined by “and”; a condition that tells them apart may be missing. Equal values may be shown once. Read-outs that look alike come from different tables or passages of the source.

How the values were obtained:
U251 = test: Invasion of solid tumor cells; format: cell-based; details: Homo sapiens, U-251; U251 (PDGF), glioblastoma
SF-295 = test: Invasion of solid tumor cells; format: cell-based; details: Homo sapiens; SF-295 (PDGF), glioblastoma
SF-539 = test: Invasion of solid tumor cells; format: cell-based; details: Homo sapiens; SF-539 (PDGF), glioblastoma
Farage cells = test: Cytotoxicity assay (3 day ATP production); format: cell-based; details: 72 hours, read-out: Farage (GCB-DLBCL) GIC50
Method: (§1) Cells line Farage, DOHH2 and Rec-1 were obtained from American Type Culture Collection (Manassas, Va., USA) Cytotoxicity assays were measured in 3 day ATP production assays as follows: The cells were plated in black/clear-bottom 96-well TC plates (BD Falcon, Cat #353948) at 3000 cells/75 μL (for DoHH-2 and Farage cells) or 6000 cells/75 μL (Rec-1 cells) media per well. […] Plates were then sealed with breathable sealing films (ISC BioExpress, Cat # T-2421-50) and placed in a 37° C., 5% CO2 humidified incubator for 72 hours. In addition, cells were seeded in a separate plate in the same manner as above, 25 μL medium in 1% DMSO was added to each well. This plate was immediately tested in the CellTiter-Glo Luminescent Cell Viability Assay (Promega, Cat # G7572) as 0 time point and the results were used to calculate GIC50 in the Farage and DOHH-2 cell experiments After 72 hours of incubation, 100 μL of CellTiter-Glo reagent were added to each well and incubated at room temperature with gentle shaking for 30 minutes. The plates were then analyzed for luminescence in a TopCount NXT Reader (Packard). Each well was counted for one second. Values for duplicate wells were averaged and then compared to the zero time point DMSO control (0% inhibition) to calculate the percentage inhibition of cell growth. Mean DOHH-2 GIC50 values and Farage GIC50 values were calculated from three experiments. Rec-1 IC50 values were calculated from two experiments.

DoHH-2 cells = test: Cytotoxicity assay (3 day ATP production); format: cell-based; details: Homo sapiens, 72 hours, read-out: DoHH2 (FL) GIC50
Method: as §1

Rec-1 cells = test: Cytotoxicity assay (3 day ATP production); format: cell-based; details: Homo sapiens, Rec1; 72 hours; read-out: REC1 (MCL) IC50
Method: as §1

Oral pharmacokinetics = format: in vivo; details: Cyno monkey
[1] = tested on: human umbilical vascular endothelial cell (HUVEC); test: HUVEC invasion; format: cell-based
DLBCL cell lines = test: In vitro DLBCL cell thymidine incorporation assay (panel); format: cell-based; details: 5 days, 3H-thymidine incorporation
Excerpt: Results of 3 independent experiments are shown (mean±SD) in FIG. 2. […] ABC-subtype cells appear more sensitive to the antiproliferative effect than other subtype cells including GCB-DLBCL and PMBL cells.

T cells = test: Anti-CD3-stimulated human T cell assay, cytokine production; format: cell-based
Method: T cells were isolated from buffy coat by negative selection using the RosetteSep® T Cell Enrichment Cocktail. The manufacturer's procedures were followed accordingly. All 96-well plates were pre-coated with 3 μg/ml anti-human CD3 antibody in 100 μl 1×PBS for 4 hours at 37° C. The plates were washed three times with RPMI-1640 Complete Media prior to the T cell assay. T cells were then plated in CD3 pre-coated plates at a density of 2.5×10^5 cells/well in 180 μl RPMI-1640 Complete Media. The cells were treated with 20 μl 10× titrated compounds at 10, 1, 0.1, 0.01, 0.001, 0.0001 and 0.00001 μM. Final DMSO concentrations were 0.25%. The plates were incubated for 48 hours at 37° C., 5% CO2. After 48 hours, the supernatants were harvested and tested by a multi-plex cytometric bead array (CBA) assay for the following cytokines/chemokines: IL-2, IL-3, IL-5, IL-10, IL-13, IL-15, IL-17a, GM-CSF, G-SCF, IFN-γ, TNF-α and RANTES. The CBA plates were analyzed on the Luminex IS100 instrument. […] All 96-well plates were pre-coated with 3 μg/mL anti-human CD3 antibody in 100 μL 1×PBS for 4 hours at 37° C. The plates were washed 3 times with RPMI-1640 Complete Media prior to the T cell assay. The T cells were then plated in anti-CD3-pre-coated plates at a density of 2.5×10^5 cells/well in 180 μL RPMI-1640 Complete Media. The cells were treated with 20 μL 10× titrated Celgene compounds at 10, 1, 0.1, 0.01, 0.001, 0.0001, and 0.00001 μM in duplicate. The final DMSO concentrations were 0.25%. The plates were incubated for 48 hours at 37° C., 5% CO2. After 48 hours, the supernatants were harvested and tested by a multiplex cytometric bead array (CBA) assay for the following cytokines/chemokines: IL-2, IL-3, IL-5, IL-10, IL-13, IL-15, IL-17A, GM-CSF, G-CSF, IFN-γ, TNF-α, and RANTES. The CBA plates were analyzed on the Luminex IS100 instrument.

[2] = PK profiles in male monkeys; format: in vivo, monkey; details: for AUC(0-t) / Cmax: monkey, in vivo, po, male monkeys
HCT116 = test: Solid tumor cell colony formation; format: cell-based; details: Homo sapiens, HCT-116
SK-HEP-1 = test: Invasion of solid tumor cells; format: cell-based; details: Homo sapiens, SK-HEP1; SK-HEP-1 (VEGF), hepatocellular
pRb, IRF4 = test: Western blot of cell cycle regulators in H929 cells; format: cell-based
[3] = cynomolgus monkey, plasma, 3 mg/kg, 3 mpk po

Work on `Cc1nc2cccc(N)c2c(=O)n1C1CCC(=O)NC1=O` (stereo not shown) [compound of Formula I, 3-(5-amino-2-methyl-4-oxo-4H-quinazolin-3-yl)-piperidine-2,6-dione] yielded an IC50 (U251) of 3700 nM, an IC50 (SF-295) of 240 nM and an IC50 (SF-539) of 25 nM. The IC50 (Farage cells) was 700 nM, the IC50 (DoHH-2 cells) was 610 nM and the IC50 (Rec-1 cells) was 470 nM. For the same compound, the F (Oral pharmacokinetics; 3 mpk po) was 32%, the AUC (Oral pharmacokinetics; [3]) was 12000 ng·h/mL and 43 µM·h and the Cmax (Oral pharmacokinetics; [3]) was 3300 ng/mL and 11 µM. The half-life (Oral pharmacokinetics; cynomolgus monkey, plasma, oral, 3 mpk) was 5.8 h, the clearance (Oral pharmacokinetics; cynomolgus monkey, plasma, read-out: CLp) was 1.2 mL/min/kg and the IC50 ([1]; read-out: IC50 for inhibition of HGF-induced HUVEC invasion) was 110 nM. For the same compound, the IC50 ([1]; read-out: IC50 for inhibition of VEGF-induced HUVEC invasion) was 0.29 nM, the IC50 ([1]; read-out: IC50 for inhibition of bFGF-induced HUVEC invasion) was 5.5 nM and the “concentration starting at which proliferation of several lines of DLBCL cells was significantly (p<0.05) inhibited” value (DLBCL cell lines) was 0.1 to 1 µM. The IL-5 production increase (T cells; 0.01 μM) was 3 fold, the IL-5 production increase (T cells; 0.1 μM) was 4 fold and the “production of IL-2, IL-3, IL-5, IL-10, IL-15, GM-CSF, INF-γ, RANTES, and TNF-α” value (T cells; 0.01 to 10 μM) was “enhanced”. The IL-10 production (T cells; 1 and 10 μM) was “inhibited”, the EC50 (T cells; Homo sapiens, T-cell, read-out: T cell IL-2 EC50) was 12 to 14 nM and the IL-10 production enhancement (T cells; low concentrations (≦0.01 μM)) was 2 fold. For the same compound, the AUC(0-t) ([2]; 0.3 mg/kg) was 1300 ng·h/mL and 4.5 µM·h, the Cmax ([2]; 0.3 mg/kg) was 100 ng/mL and 360 nM and the AUC(0-t) ([2]; 3 mg/kg) was 14000 ng·h/mL and 49 µM·h. For the same compound, the Cmax ([2]; 3 mg/kg) was 1100 ng/mL and 3.8 µM, the AUC(0-t) ([2]; 10 mg/kg) was 38000 ng·h/mL and 130 µM·h and the Cmax ([2]; 10 mg/kg) was 3100 ng/mL and 11 µM. For the same compound, the AUC(0-t) ([2]; 30 mg/kg) was 99000 ng·h/mL and 350 µM·h, the Cmax ([2]; 30 mg/kg) was 7700 ng/mL and 27 µM and the “Exposures (AUC(0-t)) versus dose” value ([2]; up to 30 mg/kg, male monkey) was “increased in a dose proportional manner”. The inhibition at 10 µM (HCT116) was 13%, the IC50 (SK-HEP-1) was 6.1 nM and the “phosphorylation of pRB” value (pRb, IRF4) was “decreased”. For the same compound, the “total level of protein IRF4” value (pRb, IRF4) was “decreased”.
